Reference: patent US12195427B2, “MASP-2 inhibitors and methods of use” (priority 2018, dated 2025)
Structures can show the parent of a compound that is named as a salt.

Biological target: MASP-2 CCP2-SP (Homo sapiens (Human), UniProt O00187)
Assay: MASP-2 co-crystallization, X-ray crystallography and structure analysis (H-bonds, van der Waals contacts);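 as to Ligand-pharmacophore element distance, pharmacophore element C2: distance from averaged pharmacophore element to bound ligand; missing value means element absent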;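 as to Ligand-pharmacophore element distance, pharmacophore element C3: distance from averaged pharmacophore element to bound ligand; missing value means element absent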;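 as to Ligand-pharmacophore element distance, pharmacophore element C4: distance from averaged pharmacophore element to bound ligand; missing value means element absent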;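 as to Ligand-pharmacophore element distance, pharmacophore element C5: distance from averaged pharmacophore element to bound ligand; missing value means element absent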
Set-up: van der Waals contact distance, MASP-2 HIS 483 atom CD2 / van der Waals contact distance, MASP-2 HIS 483 atom NE2 / van der Waals contact distance, SER 654 C to compound atom / van der Waals contact distance, SER 654 O to compound atom / van der Waals contact distance, TRP 655 C to compound atom / van der Waals contact distance, MASP-2 GLY 528 atom CA / van der Waals contact distance TRP 655 atom CZ3 / van der Waals contact distance TRP 655 atom N / van der Waals contact distance TRP 655 atom CE3 / van der Waals contact distance GLY 656 atom C / van der Waals contact distance GLY 656 atom CA / van der Waals contact distance GLY 656 atom O / van der Waals contact distance, MASP-2 TYR 607 atom CD1 / van der Waals contact distance, MASP-2 PRO 606 atom O / d(C3,CA1) / d(CA1,N1)2 / d(H4,O1) / d(H4,O2) / d(O1,O2) / d(CA1,O2) / d(CA6,O1) / d(CA6,O2) / d(CA1,C5) / d(O2,H3) / d(N2,C2) / d(CA5,N2) / d(N2,C4) / d(N2,C6) / d(N2,CA3) / d(N2,O3) / d(O4,H2): unit not given beside the values
Conditions: for H-bond distance to MASP-2 ASP 627 atom OD2: ASP 627 OD2; for H-bond distance to MASP-2 GLY 656 atom N: GLY 656 N; for H-bond distance to MASP-2 SER 654 atom O: SER 654 O; for Ligand-pharmacophore element distance, pharmacophore element C2 / Ligand-pharmacophore element distance, pharmacophore element C3 / Ligand-pharmacophore element distance, pharmacophore element C4 / Ligand-pharmacophore element distance, pharmacophore element C5 / Ligand-pharmacophore element distance, pharmacophore element C6 / Ligand-pharmacophore element distance, pharmacophore element C7 / Ligand-pharmacophore element distance, pharmacophore element CA1 / Ligand-pharmacophore element distance, pharmacophore element CA2 / Ligand-pharmacophore element distance, pharmacophore element CA3 / Ligand-pharmacophore element distance, pharmacophore element CA4 / Ligand-pharmacophore element distance, pharmacophore element CA5 / Ligand-pharmacophore element distance, pharmacophore element CA6: Table A4-1; for a(N1, CA1, O1) b): Methyl-amino-pyridine compounds
Method in brief: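 Human MASP-2 CCP2-SP (± 6His) expressed in E. coli and crystallized; crystals soaked in crystallization solution containing inhibitor, cryoprotected with 20% glycerol or frozen directly. Synchrotron data at 1.0 wavelength; molecular replacement from 1Q3X, partial refinement; one ligand pose analyzed; LigPlot+ contacts may include H-bonds.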

[1] = Table A5-1 pharmacophore: distance between elements, S2/S1 region
[2] = Table A5-2 pharmacophore distance, S3/S4 region
[3] = Table A7-1, between pharmacophore elements of the bound compound
[4] = Table A7-2, between pharmacophore elements of the bound compound
[5] = Table A8-6, nearest protein atom in cell to the left

MASP-2 CCP2-SP, sequence (O00187 445-686): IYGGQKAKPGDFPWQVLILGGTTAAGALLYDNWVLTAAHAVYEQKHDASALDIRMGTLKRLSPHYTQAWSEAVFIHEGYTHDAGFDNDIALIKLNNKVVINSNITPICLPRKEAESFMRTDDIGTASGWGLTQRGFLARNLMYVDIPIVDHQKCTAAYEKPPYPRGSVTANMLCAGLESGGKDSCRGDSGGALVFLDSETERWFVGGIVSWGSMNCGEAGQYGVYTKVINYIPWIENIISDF
MASP-2 CCP2-SP, sequence (O00187 364-432 partner): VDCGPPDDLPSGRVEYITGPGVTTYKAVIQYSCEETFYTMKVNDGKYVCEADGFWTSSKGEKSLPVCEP

## Cc1nc(N)ccc1CNC(=O)[C@H](C)NC(=O)[C@H]1C[C@H](Cc2cc(-c3ccccc3)cs2)CN1 [compound 1399, (2R,4R)—N—((S)-1-(((6-Amino-2-methylpyridin-3-yl)methyl)amino)-1-oxopropan-2-yl)-4-((4-phenylthiophen-2-yl)methyl)pyrrolidine-2-carboxamide Dihydrochloride]
Table A1 (H-Bonds)
  H-bond distance to MASP-2 ASP 627 atom OD2: 3.26
  H-bond distance to MASP-2 GLY 656 atom N: 3.21
  H-bond distance to MASP-2 SER 654 atom O: 3.04
Table A1 (H-Bonds), GLY 656 O
  H-bond distance to MASP-2 GLY 656 atom O: 2.75
Table A1 (H-Bonds), SER 628 O
  H-bond distance to MASP-2 SER 628 atom O: 3.15
Table A1 (H-Bonds), SER 657 O
  H-bond distance to MASP-2 SER 657 atom O: 2.86
Table A2
  van der Waals contact distance, MASP-2 amino acid atom to compound atom: 3.7
Table A2-1
  van der Waals contact distance, MASP-2 HIS 483 atom CD2: 3.72
  van der Waals contact distance, MASP-2 HIS 483 atom NE2: 3.6
Table A2-3
  van der Waals contact distance, MASP-2 PHE 529 atom CD2: 3.85
  van der Waals contact distance, MASP-2 PHE 529 atom CE2: 3.7
Table A2-7: SER 628 (CB, O, OG)
  van der Waals contact distance, MASP-2 amino acid atom to compound atom: 3.61
Table A2-11
  van der Waals contact distance, VAL 653 CG1 to compound atom: 3.32
Table A2-12
  van der Waals contact distance, TRP 655 CA to compound atom: 3.43
Table A2-13, MASP-2 TRP 655 CZ3
  van der Waals contact distance TRP 655 atom CZ3: 3.42
Table A2 section before Table A2-8
  van der Waals contact distance, MASP-2 amino acid atom to compound atom: 3.81
  Ligand-pharmacophore element distance, pharmacophore element C2: 0
  Ligand-pharmacophore element distance, pharmacophore element C3: 0.14
  Ligand-pharmacophore element distance, pharmacophore element C4: 0
  Ligand-pharmacophore element distance, pharmacophore element C5: 0
  Ligand-pharmacophore element distance, pharmacophore element C6: 0
  Ligand-pharmacophore element distance, pharmacophore element C7: 0
  Ligand-pharmacophore element distance, pharmacophore element CA1: 0.59
  Ligand-pharmacophore element distance, pharmacophore element CA2: 0.85
  Ligand-pharmacophore element distance, pharmacophore element CA3: 0
  Ligand-pharmacophore element distance, pharmacophore element CA4: 2.39
  Ligand-pharmacophore element distance, pharmacophore element CA5: 0
  Ligand-pharmacophore element distance, pharmacophore element CA6: 0
[1]
  d(C3,CA1): 2.86
  d(CA1,N1)2: 1.38
  d(CA1,O1): 4.40
  d(CA1,O2): 3.92
  d(H4,O1): 4.40
  d(H4,O2): 3.82
  d(O1,O2): 3.33
[2]
  d(N2,CA2): 5.96
  d(O2,H3): 4.09
  d(O2,N2): 2.67
Table A6-1 pharmacophore angle
  a(C3, CA1, O1): 149.86
  a(CA1, O1, O2): 105.80
  a(O1, O2, H4): 132.84
  a(N1, CA1, O1) b): 173.87
Table A6-2 pharmacophore angle
  a(O1, O2, H3): 145.77
  a(O1, O2, N2): 143.45
  a(O2, N2, CA2): 157.06
[3]
  Pharmacophore torsion angle a(C3, CA1, O1, H4): 24.20
  Pharmacophore torsion angle a(H4, O1, O2, H3): 50.25
  Pharmacophore torsion angle a(H4, O1, O2, N2): 142.63
  Pharmacophore torsion angle a(N1, CA1, O1, H4): 0.87
  Pharmacophore torsion angle a(O1, H4, O2, CA1): −83.35
[4]
  Pharmacophore torsion angle a(O1, O2, N2, CA2): 126.87
  Pharmacophore torsion angle a(O1, O2, N2, CA4): 113.10

## Cc1nc(N)ccc1CNC(=O)[C@H](C)NC(=O)[C@H]1C[C@H](Cc2cccc(Cl)c2)CN1.Cl.Cl [1328_4]
  Ligand-pharmacophore element distance, pharmacophore element C2: 0
  Ligand-pharmacophore element distance, pharmacophore element C3: 0.18
  Ligand-pharmacophore element distance, pharmacophore element C4: 1.86
  Ligand-pharmacophore element distance, pharmacophore element C5: 0
  Ligand-pharmacophore element distance, pharmacophore element C6: 0
  Ligand-pharmacophore element distance, pharmacophore element C7: 0
  Ligand-pharmacophore element distance, pharmacophore element CA1: 0.5
  Ligand-pharmacophore element distance, pharmacophore element CA2: 0.3
  Ligand-pharmacophore element distance, pharmacophore element CA3: 0
  Ligand-pharmacophore element distance, pharmacophore element CA4: 0
  Ligand-pharmacophore element distance, pharmacophore element CA5: 0
  Ligand-pharmacophore element distance, pharmacophore element CA6: 0
[1]
  d(C3,CA1): 2.85
  d(CA1,N1)2: 1.37
  d(CA1,O1): 5.05
  d(CA1,O2): 3.83
  d(H4,O1): 4.21
  d(H4,O2): 2.53
  d(O1,O2): 3.71
[2]
  d(N2,C4): 7.92
  d(N2,C4)4: 7.92
  d(N2,CA2): 6.17
  d(O2,H3): 4.71
  d(O2,N2): 2.79
Table A6-1 pharmacophore angle
  a(C3, CA1, O1): 151.05
  a(CA1, O1, O2): 96.00
  a(O1, O2, H4): 119.12
  a(N1, CA1, O1) b): 173.49
Table A6-2 pharmacophore angle
  a(O1, O2, H3): 150.66
  a(O1, O2, N2): 142.82
  a(O2, N2, C4): 160.57
  a(O2, N2, C4) 2: 109.36
  a(O2, N2, CA2): 156.25
[3]
  Pharmacophore torsion angle a(C3, CA1, O1, H4): 66.00
  Pharmacophore torsion angle a(H4, O1, O2, H3): 44.95
  Pharmacophore torsion angle a(H4, O1, O2, N2): 135.08
  Pharmacophore torsion angle a(N1, CA1, O1, H4): 58.16
  Pharmacophore torsion angle a(O1, H4, O2, CA1): −91.48
[4]
  Pharmacophore torsion angle a(O1, O2, N2, CA2): 128.70

## C[C@H](NC(=O)[C@H](N)C1Cc2ccccc2C1)C(=O)NCc1ccc2c(N)nccc2c1 [compound 1088, (S)-2-((R)-2-Amino-2-(2,3-dihydro-1H-inden-2-yl)acetamido)-N-((1-aminoisoquinolin-6-yl)methyl)propanamide Dihydrochloride]
Table A1 (H-Bonds), ASP 627 OD1
  H-bond distance to MASP-2 ASP 627 atom OD1: 2.91
Table A1 (H-Bonds)
  H-bond distance to MASP-2 ASP 627 atom OD2: 3.16
  H-bond distance to MASP-2 GLY 656 atom N: 3.22
  H-bond distance to MASP-2 SER 654 atom O: 2.89
Table A1 (H-Bonds), SER 628 OG
  H-bond distance to MASP-2 SER 628 atom OG: 3.16
Table A2-4
  van der Waals contact distance, MASP-2 PRO 606 atom C: 3.89
  van der Waals contact distance, MASP-2 TYR 607 atom CD1: 3.82
Table A2-5: TYR 607 (CE1, CE2, OH), PRO 608 (CD, CG), SER 611 (CA)
  van der Waals contact distance, MASP-2 amino acid atom to compound atom: 3.73
Table A2-9, ARG 630, AA atoms CG, CZ
  van der Waals contact distance, MASP-2 amino acid atom to compound atom: 3.79
Table A2-14, MASP-2 SER 657 C, columns c12-c13 (inferred)
  van der Waals contact distance SER 657 atom C: 3.64

## CC(NC(=O)C(CCc1ccccc1)NCc1ccc(C(=O)N2CCOCC2)cc1)C(=O)NCc1ccc(C(=N)N)cc1.Cl.Cl (centres unmarked) [1153_A]
  Ligand-pharmacophore element distance, pharmacophore element C2: 8.69
  Ligand-pharmacophore element distance, pharmacophore element C3: 0
  Ligand-pharmacophore element distance, pharmacophore element C4: 0
  Ligand-pharmacophore element distance, pharmacophore element C5: 0
  Ligand-pharmacophore element distance, pharmacophore element C6: 0
  Ligand-pharmacophore element distance, pharmacophore element C7: 0
  Ligand-pharmacophore element distance, pharmacophore element CA1: 0.43
  Ligand-pharmacophore element distance, pharmacophore element CA2: 0.34
  Ligand-pharmacophore element distance, pharmacophore element CA3: 4.19
  Ligand-pharmacophore element distance, pharmacophore element CA4: 0
  Ligand-pharmacophore element distance, pharmacophore element CA5: 0
  Ligand-pharmacophore element distance, pharmacophore element CA6: 0
[1]
  d(CA1,N1): 3.54
  d(CA1,O1): 5.79
  d(CA1,O2): 4.38
  d(H4,O1): 6.25
  d(H4,O2): 4.36
  d(O1,O2): 4.62
[2]
  d(N2,C2): 8.34
  d(N2,CA2): 6.18
  d(N2,CA3): 3.78
  d(N2,O3): 7.78
  d(O2,H3): 2.71
  d(O2,N2): 2.88
Table A6-1 pharmacophore angle
  a(CA1, O1, O2): 99.83
  a(O1, O2, H4): 132.39
Table A6-1 pharmacophore angle, all compounds with protonatable center N1 except Methyl-amino-pyridine
  A(N1, CA1, O1) a): 174.13
Table A6-2 pharmacophore angle
  a(O1, O2, H3): 138.79
  a(O1, O2, N2): 132.96
  a(O2, N2, C2): 168.69
  a(O2, N2, CA2): 152.46
  a(O2, N2, CA3): 157.4
  a(O2, N2, O3): 167.7
[3]
  Pharmacophore torsion angle a(H4, O1, O2, H3): 86.11
  Pharmacophore torsion angle a(H4, O1, O2, N2): 97.90
  Pharmacophore torsion angle a(N1, CA1, O2, H4): −11.60
  Pharmacophore torsion angle a(O1, H4, O2, CA1): 15.20
  Pharmacophore torsion angle a(O1, O2, N2, C2): 30.40
[4]
  Pharmacophore torsion angle a(O1, O2, N2, CA2): 116.41
  Pharmacophore torsion angle a(O1, O2, N2, CA3): 24.87
  Pharmacophore torsion angle a(O1, O2, N2, O3): 43.95
Table A8-6, 6th residue column, nearest protein atom in cell to the left
  Pharmacophore protein distance to MET_658 (first MET_658 column): 2.53
Table A8-6, 9th residue column, nearest protein atom in cell to the left
  Pharmacophore protein distance to MET_658 (second MET_658 column): 3.26
[5]
  Pharmacophore protein distance to GLY_528: 3.41
  Pharmacophore protein distance to PHE_529: 3.23
  Pharmacophore protein distance to PRO_608: 4.41
  Pharmacophore protein distance to SER_611: 2.46
Table A8-6, pharmacophore elements C6, CA3, O3, H1, nearest protein atom in cell to the left
  Pharmacophore protein distance to TRP_655: 3.42
